In brackets after ≈: the same amount, converted by molar mass. Some results are limits rather than exact numbers.

The target of one data set is Aurora kinase B (Homo sapiens, UniProt Q96GD4). The experiment in a line: Inhibition of aurora B kinase using 5TAMRA-GRTGRRNSICOOH as substrate by fluorescent assay.
The target of the next data set is T1, Aurora kinase A (Homo sapiens, UniProt O14965).
T1 sequence (O14965 whole entry): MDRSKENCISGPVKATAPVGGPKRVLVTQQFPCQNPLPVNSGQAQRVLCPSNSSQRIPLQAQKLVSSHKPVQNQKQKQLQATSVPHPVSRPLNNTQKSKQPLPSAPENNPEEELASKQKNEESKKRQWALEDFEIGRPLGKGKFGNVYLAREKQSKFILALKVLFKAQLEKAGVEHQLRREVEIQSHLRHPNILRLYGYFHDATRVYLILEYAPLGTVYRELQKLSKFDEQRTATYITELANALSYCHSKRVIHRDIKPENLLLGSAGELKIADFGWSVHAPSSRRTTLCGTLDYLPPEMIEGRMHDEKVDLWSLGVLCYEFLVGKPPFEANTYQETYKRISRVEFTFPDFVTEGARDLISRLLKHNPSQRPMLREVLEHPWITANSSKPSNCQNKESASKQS
The experiment in a line: Inhibition of aurora A kinase using 5TAMRA-GRTGRRNSICOOH as substrate by fluorescent assay.

The next data set is described as follows: cells. The class given is cell-based. The conditions noted are these: Homo sapiens, HCT-116, 1 h.
Data set [1] addresses Calcium/calmodulin-dependent protein kinase type IV (Homo sapiens, UniProt Q16566). The experiment in a line: Inhibition of Camk4.
In data set [2] the target is Testis-specific serine/threonine-protein kinase 2 (Homo sapiens, UniProt Q96PF2). The experiment in a line: Inhibition of TSSK2.
Data set [3] addresses Protein kinase C alpha type (Homo sapiens, UniProt P17252). Nature of the data set: Inhibition of PKCa.
The target of data set [4] is Serine/threonine-protein kinase 3 (Homo sapiens, UniProt Q13188). Nature of the data set: Inhibition of MST2.
Data set [5] concerns the target Tyrosine-protein kinase Lck (Homo sapiens, UniProt P06239). The experiment in a line: Inhibition of LCK.
For data set [6], the target named is Tyrosine-protein kinase JAK2 (Homo sapiens, UniProt O60674). Nature of the data set: Inhibition of Jak2.
A short description of data set [7]: Clearance in human hepatocytes assessed per million cells. The class given is ADME, cell-based, Liver, Hepatocyte.
Data set [8] can be described thus: Oral bioavailability in mouse. Type of data set: ADME, organism-based. As to conditions: in vivo; call rule not given here.
Another data set has as its target Cytochrome P450 3A4 (Homo sapiens, UniProt P08684). The experiment in a line: inhibition of CYP3A4. Type of data set: ADME.
A short description of data set [9]: Aqueous solubility of the compound. Type of data set: physicochemical. The conditions noted are these: buffer.
Another data set deals with Cytochrome P450 2D6 (Homo sapiens, UniProt P10635). The experiment in a line: inhibition of CYP2D6. Type of data set: ADME.
The target of data set [10] is Mitogen-activated protein kinase 1 (Homo sapiens, UniProt P28482). Nature of the data set: Inhibition of ERK2.
Data set [11] concerns the target Vascular endothelial growth factor receptor 2 (Homo sapiens, UniProt P35968). Nature of the data set: Inhibition of VEGFR2.
Data set [12] can be described thus: Inhibition of IGRF.
Data set [13] in a line: Clearance in mouse. Type of data set: ADME, organism-based. As to conditions: in vivo.
Data set [14] addresses Ribosomal protein S6 kinase alpha-3 (Homo sapiens, UniProt P51812). Nature of the data set: Inhibition of RSK2.
For the next data set, the target named is Cytochrome P450 2C9 (Homo sapiens, UniProt P11712). Nature of the data set: inhibition of CYP2C9. Type of data set: ADME.
Data set [15] can be described thus: Plasma protein binding in human. The class given is ADME, cell-free. The conditions noted are these: read-out: PPB (converted).
In data set [16] the target is Serine/threonine-protein kinase PLK3 (Homo sapiens, UniProt Q9H4B4). Nature of the data set: Inhibition of PLK3.
For data set [17], the target named is Inhibitor of nuclear factor kappa-B kinase subunit beta (Homo sapiens, UniProt O14920). Nature of the data set: Inhibition of IKKb.
Data set [18] addresses Hepatocyte growth factor receptor (Homo sapiens, UniProt P08581). Nature of the data set: Inhibition of cMet.
Data set [19] in a line: Permeability across apical to basolateral side in human Caco2 cell membrane. The class given is ADME, cell-based. The conditions noted are these: Caco-2, read-out: permeability. Background: Passage across Caco-2 layers is used to estimate intestinal permeability.
For data set [20], the target named is Interleukin-1 receptor-associated kinase 4 (Homo sapiens, UniProt Q9NWZ3). Nature of the data set: Inhibition of IRAK4.
Data set [21] deals with RAC-alpha serine/threonine-protein kinase (Homo sapiens, UniProt P31749). The experiment in a line: Inhibition of Akt1.
The target in a further data set is hERG (KCNH2) (Homo sapiens, UniProt Q12809). Nature of the data set: Inhibition of human ERG assessed as Rb efflux at 1.5 ug/ml.
The target of data set [22] is Rho-associated protein kinase 2 (Homo sapiens, UniProt O75116). The experiment in a line: Inhibition of Rock2.
The target of data set [23] is Serine/threonine-protein kinase Chk1 (Homo sapiens, UniProt O14757). The experiment in a line: Inhibition of Chk1.

Sequence of Aurora kinase B (Q96GD4 whole entry): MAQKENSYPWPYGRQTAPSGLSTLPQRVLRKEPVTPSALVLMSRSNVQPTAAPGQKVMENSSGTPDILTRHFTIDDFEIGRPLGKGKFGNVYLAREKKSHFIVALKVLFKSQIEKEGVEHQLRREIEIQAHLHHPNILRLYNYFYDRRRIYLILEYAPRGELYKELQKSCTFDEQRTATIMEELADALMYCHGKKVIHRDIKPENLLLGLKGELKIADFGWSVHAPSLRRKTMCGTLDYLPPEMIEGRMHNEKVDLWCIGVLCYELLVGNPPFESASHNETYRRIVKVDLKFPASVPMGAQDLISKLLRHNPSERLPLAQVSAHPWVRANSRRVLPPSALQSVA
Sequence of Serine/threonine-protein kinase PLK3 (Q9H4B4 whole entry): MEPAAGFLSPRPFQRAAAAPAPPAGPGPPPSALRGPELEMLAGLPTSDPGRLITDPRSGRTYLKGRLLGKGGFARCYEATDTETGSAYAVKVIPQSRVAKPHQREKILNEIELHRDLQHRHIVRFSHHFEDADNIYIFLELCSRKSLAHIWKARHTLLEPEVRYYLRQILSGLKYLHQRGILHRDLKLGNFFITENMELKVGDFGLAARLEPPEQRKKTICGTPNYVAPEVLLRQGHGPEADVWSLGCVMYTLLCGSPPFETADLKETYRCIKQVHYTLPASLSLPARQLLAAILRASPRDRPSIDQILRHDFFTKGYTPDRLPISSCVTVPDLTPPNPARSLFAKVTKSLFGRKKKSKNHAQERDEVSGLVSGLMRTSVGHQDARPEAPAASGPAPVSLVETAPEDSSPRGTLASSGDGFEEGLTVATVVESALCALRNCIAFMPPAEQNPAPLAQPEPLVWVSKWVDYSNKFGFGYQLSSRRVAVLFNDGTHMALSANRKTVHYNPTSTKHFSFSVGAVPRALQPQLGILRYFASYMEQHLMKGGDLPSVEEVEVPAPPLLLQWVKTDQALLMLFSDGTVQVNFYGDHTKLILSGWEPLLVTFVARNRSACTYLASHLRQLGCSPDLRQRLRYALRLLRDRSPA
Sequence of hERG (KCNH2) (Q12809 whole entry): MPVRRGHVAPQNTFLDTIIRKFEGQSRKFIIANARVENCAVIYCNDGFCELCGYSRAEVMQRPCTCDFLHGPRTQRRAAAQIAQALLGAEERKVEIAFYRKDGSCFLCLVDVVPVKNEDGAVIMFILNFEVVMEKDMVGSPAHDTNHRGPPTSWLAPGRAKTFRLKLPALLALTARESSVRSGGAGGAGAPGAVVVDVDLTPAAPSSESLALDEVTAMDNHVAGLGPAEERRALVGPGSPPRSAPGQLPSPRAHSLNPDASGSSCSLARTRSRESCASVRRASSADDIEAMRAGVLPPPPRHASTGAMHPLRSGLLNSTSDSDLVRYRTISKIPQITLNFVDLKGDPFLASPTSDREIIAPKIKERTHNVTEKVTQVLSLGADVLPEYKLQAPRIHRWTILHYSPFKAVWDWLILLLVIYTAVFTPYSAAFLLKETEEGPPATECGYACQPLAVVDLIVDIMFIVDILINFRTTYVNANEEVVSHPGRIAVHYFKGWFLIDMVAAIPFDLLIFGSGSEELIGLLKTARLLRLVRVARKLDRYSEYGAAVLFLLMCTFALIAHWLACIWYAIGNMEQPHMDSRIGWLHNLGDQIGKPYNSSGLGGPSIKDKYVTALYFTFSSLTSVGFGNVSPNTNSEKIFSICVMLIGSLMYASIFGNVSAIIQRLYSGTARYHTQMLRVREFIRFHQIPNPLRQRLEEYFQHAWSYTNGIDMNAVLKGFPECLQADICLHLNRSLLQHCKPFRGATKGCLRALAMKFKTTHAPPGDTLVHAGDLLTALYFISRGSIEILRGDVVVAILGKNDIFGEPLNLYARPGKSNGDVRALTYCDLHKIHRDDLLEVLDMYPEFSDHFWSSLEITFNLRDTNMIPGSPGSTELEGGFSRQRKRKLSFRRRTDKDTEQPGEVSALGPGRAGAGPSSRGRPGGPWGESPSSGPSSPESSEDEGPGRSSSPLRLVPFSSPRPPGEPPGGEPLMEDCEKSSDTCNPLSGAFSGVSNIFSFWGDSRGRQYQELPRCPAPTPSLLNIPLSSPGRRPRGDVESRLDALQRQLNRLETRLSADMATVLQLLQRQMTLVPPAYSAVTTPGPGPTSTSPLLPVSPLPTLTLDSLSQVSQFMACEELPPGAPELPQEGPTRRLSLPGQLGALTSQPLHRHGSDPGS
Sequence of Rho-associated protein kinase 2 (O75116 whole entry): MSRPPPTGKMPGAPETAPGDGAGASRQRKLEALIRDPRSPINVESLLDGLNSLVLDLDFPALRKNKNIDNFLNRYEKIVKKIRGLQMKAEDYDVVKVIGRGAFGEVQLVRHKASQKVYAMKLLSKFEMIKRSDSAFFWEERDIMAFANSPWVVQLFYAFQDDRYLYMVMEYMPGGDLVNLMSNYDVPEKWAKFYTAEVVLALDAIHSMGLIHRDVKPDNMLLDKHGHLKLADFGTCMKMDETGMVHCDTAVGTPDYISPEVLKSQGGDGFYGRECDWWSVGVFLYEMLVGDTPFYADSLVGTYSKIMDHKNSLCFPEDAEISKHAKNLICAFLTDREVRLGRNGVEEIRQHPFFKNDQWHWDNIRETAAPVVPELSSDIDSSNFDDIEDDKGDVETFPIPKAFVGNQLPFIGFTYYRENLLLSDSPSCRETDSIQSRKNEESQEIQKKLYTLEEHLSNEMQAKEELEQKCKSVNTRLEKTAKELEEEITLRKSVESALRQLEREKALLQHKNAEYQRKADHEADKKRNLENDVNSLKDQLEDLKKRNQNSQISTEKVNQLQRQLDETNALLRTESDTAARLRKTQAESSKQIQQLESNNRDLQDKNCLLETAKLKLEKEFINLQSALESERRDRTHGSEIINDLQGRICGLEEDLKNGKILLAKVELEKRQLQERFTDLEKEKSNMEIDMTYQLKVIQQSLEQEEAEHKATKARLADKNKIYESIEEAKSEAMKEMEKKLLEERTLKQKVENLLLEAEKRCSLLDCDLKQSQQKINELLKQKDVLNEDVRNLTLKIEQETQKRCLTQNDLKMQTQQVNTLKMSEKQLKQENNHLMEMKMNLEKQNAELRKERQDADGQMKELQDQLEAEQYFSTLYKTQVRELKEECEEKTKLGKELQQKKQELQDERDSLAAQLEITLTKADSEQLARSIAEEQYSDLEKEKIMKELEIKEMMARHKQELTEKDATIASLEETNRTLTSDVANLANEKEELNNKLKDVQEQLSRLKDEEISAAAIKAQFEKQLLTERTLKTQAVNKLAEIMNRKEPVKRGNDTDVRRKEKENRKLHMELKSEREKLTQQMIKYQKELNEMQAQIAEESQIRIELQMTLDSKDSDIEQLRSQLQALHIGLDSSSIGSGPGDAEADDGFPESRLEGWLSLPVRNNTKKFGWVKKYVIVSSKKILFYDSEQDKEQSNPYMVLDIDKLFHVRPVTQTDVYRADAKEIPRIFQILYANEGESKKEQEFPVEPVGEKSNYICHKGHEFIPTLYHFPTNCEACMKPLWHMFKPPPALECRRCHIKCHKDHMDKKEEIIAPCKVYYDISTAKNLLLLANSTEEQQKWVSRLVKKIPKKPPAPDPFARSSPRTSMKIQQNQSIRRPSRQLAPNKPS
Sequence of Hepatocyte growth factor receptor (P08581 whole entry): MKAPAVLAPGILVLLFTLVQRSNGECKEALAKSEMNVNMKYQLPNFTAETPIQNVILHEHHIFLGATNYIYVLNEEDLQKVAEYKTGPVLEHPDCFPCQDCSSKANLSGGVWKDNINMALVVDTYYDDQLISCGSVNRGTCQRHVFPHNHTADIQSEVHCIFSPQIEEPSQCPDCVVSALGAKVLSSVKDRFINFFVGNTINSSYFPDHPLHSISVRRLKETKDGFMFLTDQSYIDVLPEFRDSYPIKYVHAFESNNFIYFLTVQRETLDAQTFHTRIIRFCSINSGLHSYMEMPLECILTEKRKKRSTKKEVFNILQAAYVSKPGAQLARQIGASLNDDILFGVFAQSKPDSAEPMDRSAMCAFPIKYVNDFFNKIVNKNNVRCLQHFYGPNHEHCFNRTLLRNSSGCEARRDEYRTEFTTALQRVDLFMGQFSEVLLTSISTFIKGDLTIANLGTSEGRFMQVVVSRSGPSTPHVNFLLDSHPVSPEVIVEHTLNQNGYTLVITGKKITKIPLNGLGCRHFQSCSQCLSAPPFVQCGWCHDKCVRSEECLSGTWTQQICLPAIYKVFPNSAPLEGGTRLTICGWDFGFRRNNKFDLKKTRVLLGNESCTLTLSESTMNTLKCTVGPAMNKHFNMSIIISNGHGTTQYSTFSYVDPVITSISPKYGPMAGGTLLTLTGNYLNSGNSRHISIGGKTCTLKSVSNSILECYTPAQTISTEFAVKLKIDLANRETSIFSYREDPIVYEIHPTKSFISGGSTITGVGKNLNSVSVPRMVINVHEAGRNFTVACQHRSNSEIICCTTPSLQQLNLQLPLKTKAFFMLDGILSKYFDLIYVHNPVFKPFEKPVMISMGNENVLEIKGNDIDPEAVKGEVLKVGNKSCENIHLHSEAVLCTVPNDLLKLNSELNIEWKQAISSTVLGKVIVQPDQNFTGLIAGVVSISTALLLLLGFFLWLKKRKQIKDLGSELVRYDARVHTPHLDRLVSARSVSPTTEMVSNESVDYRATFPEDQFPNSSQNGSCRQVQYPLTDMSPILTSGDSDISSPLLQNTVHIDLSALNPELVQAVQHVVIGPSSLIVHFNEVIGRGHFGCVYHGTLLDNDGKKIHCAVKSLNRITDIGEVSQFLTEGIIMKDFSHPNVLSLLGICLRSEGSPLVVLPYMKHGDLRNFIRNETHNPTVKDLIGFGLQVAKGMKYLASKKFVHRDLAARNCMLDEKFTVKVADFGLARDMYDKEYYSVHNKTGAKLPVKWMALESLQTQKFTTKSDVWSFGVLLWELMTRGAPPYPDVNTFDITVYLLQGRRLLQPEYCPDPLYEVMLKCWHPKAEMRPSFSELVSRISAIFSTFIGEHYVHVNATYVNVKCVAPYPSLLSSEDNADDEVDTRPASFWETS

For orientation: IC50 means the concentration at which inhibition is half-maximal. `CC(C)c1cc(Nc2nccn3c(-c4cnn(C)c4)cnc23)sn1`: the results for the IC50 on Aurora kinase B (read-out: IC50) and on Aurora kinase A were 700 nM and 640 nM, respectively.
In general, EC50 refers to the concentration that produces a half-maximal response. A higher EC50 goes with weaker potency. In the case of `Cc1cc(Nc2nc([S+](C)[O-])cn3c(-c4cn[nH]c4)cnc23)sn1` (racemic), the results for the IC50 at Aurora kinase B (read-out: IC50) and against Aurora kinase A were 185 nM and 30 nM, respectively. In the data set “cells”, this molecule registered an EC50 of over 10000 nM.
On to `CN(C)c1cccc(Nc2nccn3c(-c4cnn(C)c4)cnc23)c1`, for which the IC50 result against Aurora kinase B is “Not Active”; at Aurora kinase A it was over 10000 nM.
As for `CCc1cn2c(-c3cn[nH]c3)cnc2c(Nc2cc(C)ns2)n1`, at Aurora kinase B (read-out: IC50), the IC50 is at most 13 nM. Moreover, the EC50 in the data set “cells” is 850 nM.
In the case of `Cc1cc(Nc2nccn3c(-c4cn[nH]c4)cnc23)sn1`, the IC50 at Aurora kinase B (read-out: IC50) is at most 13 nM; on Aurora kinase A it was at most 4 nM. The molecule also displayed an EC50 in the data set “cells” of 1300 nM.
For the molecule `Cc1cc(Nc2nc(C)cn3c(-c4cn[nH]c4)cnc23)sn1`, the IC50 on Aurora kinase B (read-out: IC50) is at most 13 nM. In the data set “cells”, the EC50 amounted to 250 nM.
In the case of `Cc1cc(Nc2nc(C#N)cn3c(-c4cn[nH]c4)cnc23)sn1`, the IC50 on Aurora kinase B (read-out: IC50) amounted to 219 nM; against Aurora kinase A, 46 nM. Further, the EC50 in the data set “cells” is over 10000 nM.
Regarding `Cc1csc(Nc2nccn3c(-c4cnn(C)c4)cnc23)n1`, the IC50 result on Aurora kinase B is “Not Active”; against Aurora kinase A, over 10000 nM.
The hepatocyte CLint is the rate of metabolic loss divided by the concentration. The term bioavailability denotes dose-corrected exposure relative to a reference, in per cent. A lower bioavailability goes with poor availability. Usually solubility stands for the concentration that dissolves in the medium under given conditions. A low value points to little dissolved substance. For orientation: clearance means a measure of how efficiently the substance is removed, as volume per time. Low values mean inefficient removal, high ones efficient removal. By inhibition is commonly meant the change of the read-out against control, counted positive when it falls. For the molecule `CSc1cn2c(-c3cn[nH]c3)cnc2c(Nc2cc(C)ns2)n1`, the IC50 in data set [1] was over 10000 nM; in [2], over 10000 nM; in data set [3], over 10000 nM; in [4], over 10000 nM; in data set [5], 468 nM; in [6], over 10000 nM. Moreover, the IC50 at Aurora kinase B (read-out: IC50) was at most 13 nM; in [10], over 10000 nM; in data set [11], 36 nM; in data set [12], over 10000 nM; in [14], 1310 nM; in data set [16], 785 nM. Besides, the IC50 in data set [17] was over 10000 nM; in [18] it was over 10000 nM; in [20], 167 nM; in data set [21], over 10000 nM; in data set [22], over 10000 nM; in data set [23], 187 nM. Further, the intrinsic clearance (hepatocyte CLint) in data set [7] was determined as 49.7 µL/min/1e6 cells. In data set [8], this molecule returned a bioavailability of 4%. The INH on Cytochrome P450 3A4, at Cytochrome P450 2D6 and at Cytochrome P450 2C9 was over 20 µM in each case. The solubility in [9] was 25 µM (≈ 8.59 µg/mL). The molecule also registered an EC50 in “cells” of 600 nM. Besides, the clearance in [13] was found to be 89 mL/min/kg. Besides, the fraction unbound in data set [15] is 0.006. Moreover, the Papp A→B in [19] came out at 63.3 ×10⁻⁶ cm/s. Moreover, the inhibition at 1.5 ug/ml at hERG (KCNH2) was determined as 8.7%.
As to `Cc1cc(Nc2nccn3c(-c4cnn(C)c4)cnc23)sn1`, the IC50 at Aurora kinase B (read-out: IC50) amounted to 360 nM; against Aurora kinase A, 570 nM.
Regarding `Cc1cc(Nc2nc(CCN)cn3c(-c4cn[nH]c4)cnc23)sn1`, the IC50 came out at 33 nM on Aurora kinase B (read-out: IC50) and 83 nM at Aurora kinase A. Besides, the EC50 in the data set “cells” is over 10000 nM.
Take `CN(C)S(=O)(=O)c1ccc(Nc2nccn3c(-c4cnn(C)c4)cnc23)cc1`: the values for the IC50 result on Aurora kinase B and against Aurora kinase A were “Not Active” and 3700 nM, respectively.
Regarding `CS(=O)(=O)N1CCC(c2cc(Nc3nccn4c(-c5cn[nH]c5)cnc34)sn2)CC1`, the IC50 worked out at 18 nM at Aurora kinase B (read-out: IC50) and 6 nM against Aurora kinase A. For the same molecule, the EC50 in the data set “cells” came out at 1300 nM.
For `Cn1cc(-c2cnc3c(Nc4cc(C5CCN(S(C)(=O)=O)CC5)ns4)nccn23)cn1`, the IC50 is 110 nM on Aurora kinase B (read-out: IC50) and 170 nM at Aurora kinase A.
`Cc1cc(Nc2nc(SC(C)(C)C)cn3c(-c4cn[nH]c4)cnc23)sn1`: the IC50 on Aurora kinase B (read-out: IC50) was determined as 272 nM. This molecule also displayed an EC50 in “cells” of 5600 nM.
With `Cc1cc(Nc2nc(CN3CCOCC3)cn3c(-c4cn[nH]c4)cnc23)sn1`, the values for the IC50 on Aurora kinase B (read-out: IC50) and on Aurora kinase A were 110 nM and 50 nM, respectively. The molecule further had an EC50 in “cells” of over 10000 nM.
With `Cc1cc(Nc2nc(Sc3ccc(F)cc3)cn3c(-c4cn[nH]c4)cnc23)sn1`, the IC50 at Aurora kinase B (read-out: IC50) turned out to be 129 nM. Also, the EC50 in “cells” is 2500 nM.
As to `CCSc1cn2c(-c3cn[nH]c3)cnc2c(Nc2cc(C)ns2)n1`, the IC50 on Aurora kinase B (read-out: IC50) is 24 nM.
Consider `Cc1cc(Nc2nc(C3CC3)cn3c(-c4cn[nH]c4)cnc23)sn1`, for which the IC50 was determined as 51 nM at Aurora kinase B (read-out: IC50) and 17 nM against Aurora kinase A. This molecule had an EC50 in the data set “cells” of 2600 nM.
For `Cc1cc(Nc2nc(-c3cccnc3)cn3c(-c4cn[nH]c4)cnc23)sn1`, the IC50 at Aurora kinase B (read-out: IC50) was 62 nM; on Aurora kinase A, 8 nM. The molecule further had an EC50 in the data set “cells” of over 10000 nM.
On to `Cc1cc(Nc2nc(S(C)(=O)=O)cn3c(-c4cn[nH]c4)cnc23)sn1`, for which the results for the IC50 at Aurora kinase B (read-out: IC50) and against Aurora kinase A were over 3000 nM and 603 nM, respectively.
As to `Cc1nsc(Nc2nccn3c(-c4cnn(C)c4)cnc23)n1`, the IC50 result against Aurora kinase B is “Not Active”; on Aurora kinase A, over 10000 nM.
With `O=S(=O)(c1ccc(Nc2nccn3c(-c4cn[nH]c4)cnc23)cc1)N1CCOCC1`, the IC50 is 120 nM at Aurora kinase B (read-out: IC50) and 81 nM on Aurora kinase A.
Molecule `Cc1cc(Nc2nc(SCCN(C)C)cn3c(-c4cn[nH]c4)cnc23)sn1` yielded an EC50 in “cells” of over 10000 nM.
As to `Cn1cc(-c2cnc3c(Nc4cc(C5CCNCC5)ns4)nccn23)cn1`, the IC50 on Aurora kinase B (read-out: IC50) was found to be 200 nM; against Aurora kinase A, 1600 nM.
For the molecule `Cc1cc(Nc2nc(C(F)(F)F)cn3c(-c4cn[nH]c4)cnc23)sn1`, the IC50 amounted to 252 nM on Aurora kinase B (read-out: IC50) and 27 nM against Aurora kinase A. Besides, the EC50 in “cells” is over 10000 nM.
With `Cc1csc(Nc2nccn3c(-c4cnn(C)c4)cnc23)c1`, the half-inhibitory concentration (IC50) at Aurora kinase B (read-out: IC50) is 3000 nM; against Aurora kinase A, 2500 nM.

For the origin of these results see ChEMBL document CHEMBL1799927, “Discovery of imidazo[1,2-a]pyrazine-based Aurora kinase inhibitors” (Bioorg Med Chem Lett, 2010).
